Measurements taken from the NIST ThermoML archive (doi:10.1016/j.tca.2018.04.018).

Legend:
[1] = molar heat capacity at constant pressure; xn = mol fraction of the nth substance listed; details: Flow calorimetry
[2] = molar heat capacity at constant pressure; details: 3000 kPa, Flow calorimetry

CCCCC [pentane] + CC(C)=O
[1]
Details	molar heat capacity at constant pressure [J/K/mol]
423.14 K, 3900 kPa, Liquid, x1 = 0.25	170.75
423.14 K, 7920 kPa, Liquid, x1 = 0.5	179.32
423.15 K, 2000 kPa, Liquid, x1 = 0.25	174.5
423.15 K, 2900 kPa, Liquid, x1 = 0.5	194.43
423.15 K, 4000 kPa, Liquid, x1 = 0.5	190.78
423.15 K, 6000 kPa, Liquid, x1 = 0.25	171.36
423.15 K, 6050 kPa, Liquid, x1 = 0.5	184.14
423.15 K, 7960 kPa, Liquid, x1 = 0.25	163.97
423.16 K, 1080 kPa, Gas, x1 = 0.5	145.86
423.16 K, 2300 kPa, Liquid, x1 = 0.25	175.12
423.17 K, 1080 kPa, Gas, x1 = 0.25	135.14
483.14 K, 2960 kPa, Gas, x1 = 0.5	180.5
483.14 K, 4000 kPa, Gas, x1 = 0.5	283.18
483.15 K, 4480 kPa, Fluid (supercritical or subcritical phases), x1 = 0.5	750.83
483.15 K, 7050 kPa, Fluid (supercritical or subcritical phases), x1 = 0.5	233.69
483.15 K, 8160 kPa, Fluid (supercritical or subcritical phases), x1 = 0.5	218.13
483.16 K, 5000 kPa, Fluid (supercritical or subcritical phases), x1 = 0.5	446.03
483.16 K, 6100 kPa, Fluid (supercritical or subcritical phases), x1 = 0.5	260.13
493.15 K, 3860 kPa, Gas, x1 = 0.25	221.56
493.15 K, 4530 kPa, Fluid (supercritical or subcritical phases), x1 = 0.25	611.96
493.15 K, 4742 kPa, Fluid (supercritical or subcritical phases), x1 = 0.25	1236.9
493.15 K, 7920 kPa, Fluid (supercritical or subcritical phases), x1 = 0.25	214.05
493.16 K, 3140 kPa, Gas, x1 = 0.25	173.64
493.16 K, 6000 kPa, Fluid (supercritical or subcritical phases), x1 = 0.25	263.45
503.14 K, 3200 kPa, Gas, x1 = 0.25	167.97
503.14 K, 4120 kPa, Gas, x1 = 0.25	214.42
503.15 K, 6180 kPa, Fluid (supercritical or subcritical phases), x1 = 0.25	330.59
503.15 K, 7820 kPa, Fluid (supercritical or subcritical phases), x1 = 0.25	229.45
503.16 K, 5400 kPa, Fluid (supercritical or subcritical phases), x1 = 0.25	600.07
508.15 K, 2980 kPa, Gas, x1 = 0.5	175.81
508.15 K, 4060 kPa, Gas, x1 = 0.5	200.68
508.15 K, 6050 kPa, Fluid (supercritical or subcritical phases), x1 = 0.5	360.73
508.15 K, 6930 kPa, Fluid (supercritical or subcritical phases), x1 = 0.5	310.98
508.15 K, 8010 kPa, Fluid (supercritical or subcritical phases), x1 = 0.5	261.37
508.16 K, 5030 kPa, Fluid (supercritical or subcritical phases), x1 = 0.5	258.63

O [water]
[2]
Details	molar heat capacity at constant pressure [J/K/mol]
330.2 K, Liquid	75.29
340.1 K, Liquid	75.41
358.4 K, Liquid	75.61
368.2 K, Liquid	75.61
378.6 K, Liquid	75.99
388.4 K, Liquid	76.49
398.5 K, Liquid	76.51
408.6 K, Liquid	77.48
418.8 K, Liquid	76.93
428.6 K, Liquid	77.72
438.5 K, Liquid	78.11
448.2 K, Liquid	78.91
458.5 K, Liquid	79.41
468.2 K, Liquid	80.92
478.2 K, Liquid	81.81
488.7 K, Liquid	83.32
498.1 K, Liquid	83.92
508.4 K, Gas	63.31
